According to ChEMBL document CHEMBL1201862, “PubChem BioAssay data set” (2004):
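Where inhibition never reached the appropriate level, the endpoint shown equals the highest concentration tested. Otherwise, values were interpolated linearly from a five-concentration, 48-hour dose response in 96-well plates. GI50 is the concentration that inhibits growth by half.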 Active and inactive are the calls of the source. No stated cut-off is given here; in the data, active = GI50 up to about 1.1 µM and inactive = higher.

Columns and labels:
Assay in all cases: growth of human tumour cells (NCI), 48 h
[1] = tested on: 786-0
[2] = tested on: A549
[3] = tested on: CCRF-CEM
[4] = tested on: COLO 205
[5] = tested on: HCT-116
[6] = tested on: HOP-92
[7] = tested on: IGROV-1
[8] = tested on: LOX IMVI
[9] = tested on: MDA-MB-435
[10] = tested on: NCI-H226
[11] = tested on: SF-295
[12] = tested on: SK-MEL-28
[13] = tested on: SK-OV-3
[14] = tested on: SNB-75
[15] = tested on: SR
[16] = tested on: SW-620
[17] = tested on: UACC-257
[18] = tested on: UACC-62
[19] = tested on: UO-31
[20] = tested on: M14

Row | SMILES | GI50 [1] | GI50 [2] | GI50 [3] | GI50 [4] | GI50 [5] | GI50 [6] | GI50 [7] | GI50 [8] | GI50 [9] | GI50 [10] | GI50 [11] | GI50 [12] | GI50 [13] | GI50 [14] | GI50 [15] | GI50 [16] | GI50 [17] | GI50 [18] | GI50 [19] | GI50 [20]
1 | CN(C)C(=S)N1C(=S)N(c2ccccc2)C(=N/c2ccccc2)/C1=N\c1ccccc1 | > 100 µM (inactive) | > 100 µM (inactive) | > 100 µM (inactive) | > 100 µM (inactive) | > 100 µM (inactive) | > 100 µM (inactive) | > 100 µM (inactive) | > 100 µM (inactive) | > 100 µM (inactive) | > 100 µM (inactive) | > 100 µM (inactive) | > 100 µM (inactive) | > 100 µM (inactive) | > 100 µM (inactive) | > 100 µM (inactive) | > 100 µM (inactive) | > 100 µM (inactive) | > 100 µM (inactive) | > 100 µM (inactive) | –
2 | CCOC(=O)N1C/C(=C\c2ccccc2)C(=O)/C(=C/c2ccccc2)C1 | 2.9 µM (inactive) | 12.3 µM (inactive) | 1.51 µM (inactive) | 4.7 µM (inactive) | 1.14 µM (inactive) | 6.56 µM (inactive) | 5.02 µM (inactive) | 1.7 µM (inactive) | 2.48 µM (inactive) | 4.56 µM (inactive) | 3.01 µM (inactive) | 2.39 µM (inactive) | 9.2 µM (inactive) | 6.97 µM (inactive) | 0.873 µM (active) | 1.4 µM (inactive) | 4.46 µM (inactive) | 2.66 µM (inactive) | 5.85 µM (inactive) | 2.77 µM (inactive)
3 | COc1cc2c(cc1OC)CN1CCc3ccccc3CC1C2 (stereo not drawn) | 36.3 µM (inactive) | 49.7 µM (inactive) | 36.9 µM (inactive) | 25.1 µM (inactive) | 23.8 µM (inactive) | 12.5 µM (inactive) | 17.5 µM (inactive) | 39 µM (inactive) | 86.5 µM (inactive) | 42.1 µM (inactive) | 34.6 µM (inactive) | 63.1 µM (inactive) | 53.5 µM (inactive) | 29 µM (inactive) | 0.208 µM (active) | 37.8 µM (inactive) | 51.4 µM (inactive) | 23.6 µM (inactive) | 22.9 µM (inactive) | 30.1 µM (inactive)
4 | COc1ccc(NC(=O)CC(=O)n2nc(-c3ccccc3)c(/N=N/c3ccccc3C)c2-c2ccccc2)cc1 | 18.5 µM (inactive) | 23.6 µM (inactive) | > 61.9 µM (inactive) | > 61.7 µM (inactive) | 20.5 µM (inactive) | 15.6 µM (inactive) | 21.4 µM (inactive) | 41 µM (inactive) | > 100 µM (inactive) | 26 µM (inactive) | 23.3 µM (inactive) | > 41.7 µM (inactive) | 19.9 µM (inactive) | 18.7 µM (inactive) | 35.9 µM (inactive) | 35.4 µM (inactive) | 64.1 µM (inactive) | 19.2 µM (inactive) | 35.6 µM (inactive) | 40.9 µM (inactive)
5 | Fc1cccc(F)c1C1SCc2nc3cc4ccccc4cc3n21 (stereo not drawn) | 31.2 µM (inactive) | 33.3 µM (inactive) | 22.4 µM (inactive) | 31.2 µM (inactive) | 47 µM (inactive) | 16.3 µM (inactive) | 21.7 µM (inactive) | 32.9 µM (inactive) | 49.9 µM (inactive) | 23.3 µM (inactive) | 29.7 µM (inactive) | 49.7 µM (inactive) | 91 µM (inactive) | 20.7 µM (inactive) | 17.5 µM (inactive) | 49 µM (inactive) | 31.6 µM (inactive) | 23.4 µM (inactive) | – | 29.7 µM (inactive)
6 | CC(CC[C@@]1(O)OC2C[C@H]3[C@@H]4CC[C@H]5CC(OC6OC(CO)C(OC7OC(CO)C(O)C(OC8OCC(O)C(O)C8O)C7OC7OC(CO)C(O)C(O)C7O)C(O)C6O)[C@H](O)CC5(C)[C@H]4CCC3(C)C2[C@@H]1C)COC1OC(CO)C(O)C(O)C1O (stereo partly drawn) | 3.43 µM (inactive) | 3.47 µM (inactive) | 3.26 µM (inactive) | 13 µM (inactive) | 3.67 µM (inactive) | 17.7 µM (inactive) | 11.3 µM (inactive) | 8.97 µM (inactive) | 14.8 µM (inactive) | 13.5 µM (inactive) | 4.24 µM (inactive) | 29.2 µM (inactive) | 13.2 µM (inactive) | 0.64 µM (active) | 7.85 µM (inactive) | 11.6 µM (inactive) | 15.8 µM (inactive) | 16.4 µM (inactive) | 6.84 µM (inactive) | 25 µM (inactive)
7 | Cc1cc(C)nc(NS(=O)(=O)c2ccc(Nc3c4ccccc4nc4ccc(C(=O)Nc5ccc(S(N)(=O)=O)cc5)cc34)cc2)n1 | > 100 µM (inactive) | > 100 µM (inactive) | 63.7 µM (inactive) | > 100 µM (inactive) | > 100 µM (inactive) | > 100 µM (inactive) | > 100 µM (inactive) | 50.6 µM (inactive) | > 100 µM (inactive) | > 100 µM (inactive) | > 100 µM (inactive) | > 100 µM (inactive) | > 100 µM (inactive) | > 100 µM (inactive) | > 100 µM (inactive) | > 100 µM (inactive) | > 100 µM (inactive) | > 100 µM (inactive) | > 100 µM (inactive) | > 100 µM (inactive)
8 | CC1C(C#N)(C#N)C(C#N)=C(N)C1(Cl)[N+](=O)[O-] (stereo not drawn) | 5.48 µM (inactive) | 21.7 µM (inactive) | 2.18 µM (inactive) | 4.9 µM (inactive) | 7.19 µM (inactive) | 2.08 µM (inactive) | 7.45 µM (inactive) | 5.32 µM (inactive) | 16.7 µM (inactive) | 17.1 µM (inactive) | 18.8 µM (inactive) | – | 17 µM (inactive) | 11.7 µM (inactive) | 5.01 µM (inactive) | 2.17 µM (inactive) | 12 µM (inactive) | 11.4 µM (inactive) | 15.5 µM (inactive) | 5.07 µM (inactive)
9 | O=C(O)CN1CCNCCNCC1 | > 100 µM (inactive) | > 100 µM (inactive) | > 100 µM (inactive) | > 100 µM (inactive) | > 100 µM (inactive) | > 100 µM (inactive) | > 100 µM (inactive) | > 100 µM (inactive) | > 100 µM (inactive) | > 100 µM (inactive) | – | > 100 µM (inactive) | > 100 µM (inactive) | 17.5 µM (inactive) | > 100 µM (inactive) | > 100 µM (inactive) | > 100 µM (inactive) | > 100 µM (inactive) | > 100 µM (inactive) | > 100 µM (inactive)
10 | O=C1O[C@H](COC(=O)c2ccccc2)[C@@H](OC(=O)c2ccccc2)C=C1OC(=O)c1ccccc1 | 18.2 µM (inactive) | – | 14.1 µM (inactive) | 19.6 µM (inactive) | 17.3 µM (inactive) | 21.8 µM (inactive) | 21.5 µM (inactive) | 19.8 µM (inactive) | 25 µM (inactive) | 21.5 µM (inactive) | 17.8 µM (inactive) | – | > 100 µM (inactive) | 25.8 µM (inactive) | 18.5 µM (inactive) | 19 µM (inactive) | 25.7 µM (inactive) | 20.7 µM (inactive) | 30.9 µM (inactive) | 17.5 µM (inactive)
11 | CC1OC(OC2C(O)COC(OC3C(C)OC(OC4C(OC(=O)[C@]56CCC(C)(C)C[C@@H]5C5=CCC7[C@@]8(C)C[C@H](O)[C@H](OC9OC(CO)C(O)C(OC%10OC(CO)C(O)C(O)C%10O)C9O)[C@@](C)(CO)[C@@H]8CC[C@@]7(C)[C@]5(C)CC6)OCC(O)C4O)C(O)C3O)C2O)C(O)C(O)C1O (stereo partly drawn) | 16.1 µM (inactive) | 14.4 µM (inactive) | 14.7 µM (inactive) | 5.15 µM (inactive) | 17.7 µM (inactive) | 20.6 µM (inactive) | – | 18 µM (inactive) | 20.9 µM (inactive) | 23.1 µM (inactive) | 14.4 µM (inactive) | 8.75 µM (inactive) | 15.7 µM (inactive) | 18.9 µM (inactive) | 13.1 µM (inactive) | 14.5 µM (inactive) | 18.3 µM (inactive) | 22.3 µM (inactive) | 4.17 µM (inactive) | 13 µM (inactive)
12 | COc1c(O)cc2c(c1O)C1O[C@H](CO)C(O)[C@H](O)[C@H]1OC2=O (stereo partly drawn) | > 100 µM (inactive) | > 100 µM (inactive) | > 100 µM (inactive) | > 100 µM (inactive) | > 100 µM (inactive) | > 100 µM (inactive) | > 100 µM (inactive) | > 100 µM (inactive) | > 100 µM (inactive) | > 100 µM (inactive) | > 100 µM (inactive) | > 100 µM (inactive) | > 100 µM (inactive) | > 100 µM (inactive) | > 100 µM (inactive) | > 100 µM (inactive) | > 100 µM (inactive) | – | – | > 100 µM (inactive)
13 | CC1C(C#N)(C#N)C(C#N)=C(N)C1(C)[N+](=O)[O-] (stereo not drawn) | 56 µM (inactive) | 23.5 µM (inactive) | 32.4 µM (inactive) | 44.6 µM (inactive) | 58.3 µM (inactive) | 2.92 µM (inactive) | 37.2 µM (inactive) | 37.7 µM (inactive) | 45.7 µM (inactive) | > 100 µM (inactive) | > 100 µM (inactive) | – | > 100 µM (inactive) | 89.5 µM (inactive) | 31.2 µM (inactive) | 51.1 µM (inactive) | 79.8 µM (inactive) | 50.4 µM (inactive) | > 100 µM (inactive) | > 100 µM (inactive)
14 | O=C(Nc1cccc2ccccc12)c1cc2ccccc2oc1=O | 13.7 µM (inactive) | > 100 µM (inactive) | > 100 µM (inactive) | > 100 µM (inactive) | 36.8 µM (inactive) | > 100 µM (inactive) | 18.5 µM (inactive) | > 100 µM (inactive) | > 100 µM (inactive) | 21.8 µM (inactive) | – | > 100 µM (inactive) | 30.2 µM (inactive) | 30.6 µM (inactive) | > 100 µM (inactive) | > 100 µM (inactive) | > 100 µM (inactive) | > 100 µM (inactive) | – | > 100 µM (inactive)
